Experiments:
[1] = UV absorption spectrum in CH2Cl2; type: physicochemical
[2] = Miscibility with cosmetic solvents such as Cétiol LC (liposolubility); settings: such as Cétiol LC (Cocoyl caprylate caprate)
[3] = Photostability under irradiation at high dilution with a Heraeus 150 W Hg-lamp; settings: irradiation at high dilution (50 ppm)

Row | Miscibility with cosmetic solvents [2] | Photostability [3] | Compound | UV absorption maximum, first (UV-B) band [1] [nm] | UV absorption maximum, second (UV-A) band [1] [nm] | melting point [°C]
1 |  |  | CCCCC=CC(C)c1cc(C)cc(-n2nc3ccccc3n2)c1O (centres unmarked) [8% byproduct, 2-(benzotriazole-2-yl)-4-methyl-6-(3-octen-2-yl)-phenol] | 306 | 344 | 
2 | easily mixable | photostable | C=CC(CCCCC)c1cc(C)cc(-n2nc3ccccc3n2)c1O (centres unmarked) [Example 1, 2-Benzotriazole-2-yl-4-methyl-6-(1-octen-3-yl)-phenol] | 306 | 344 | 37 to 38
3 |  |  | C=CC(CCC)c1cc(C(C)(C)CC(C)(C)C)cc(-n2nc3ccccc3n2)c1O (centres unmarked) [Example 2, 2-(benzotriazole-2-yl)-4-(1,1,3,3-tetramethylbutyl)-6-(1-hexen-3-yl)-phenol] | 305 | 343 | 80 to 81
4 |  |  | CCCCCC(CC)c1cc(C)cc(-n2nc3ccccc3n2)c1O (centres unmarked) [Example 3, 2-(benzotriazole-2-yl)-4-methyl-6-(3-octyl)-phenol] | 306 | 346 | 
5 |  |  | CCCC(CC)c1cc(C(C)(C)CC(C)(C)C)cc(-n2nc3ccccc3n2)c1O (centres unmarked) [Example 4, 2-(benzotriazole-2-yl)-4-(1,1,3,3-tetramethylbutyl)-6-(3-hexyl)-phenol] | 306 | 346 | 

Source: patent publication US20010023293A1, “2-hydroxyphenyl benzotriazoles as uv-a/b filters” (ROCHE VITAMINS INC., priority 2000, published 2001)
